Molecular target: T1, CCR2 (Homo sapiens, UniProt P41597)
T1 construct: expressed in transfected cells
Experiment: CCR2 calcium activity assay on FLIPR Tetra in HEK-Gqi5 cells stably expressing CCR2
Assay type: cell-based
Protocol: HEK-Gqi5 cells stably expressing CCR2 were cultured in (DMEM high glucose, 10% FBS, 1% PSA, 400 μg/ml geneticin and 50 μg/ml hygromycin. Appropriate positive control chemokines (MCP-1, MIP1A or RANTES) was used as the positive control agonist for screening compound-induced calcium activity assayed on the FLIPR^Tetra. The drug plates were prepared in 384-well microplates using the EP3 and the MuItiPROBE robotic liquid handling systems. Compounds were synthesized and tested for CCR2 activity.

T1 sequence (P41597 whole entry, species assumed): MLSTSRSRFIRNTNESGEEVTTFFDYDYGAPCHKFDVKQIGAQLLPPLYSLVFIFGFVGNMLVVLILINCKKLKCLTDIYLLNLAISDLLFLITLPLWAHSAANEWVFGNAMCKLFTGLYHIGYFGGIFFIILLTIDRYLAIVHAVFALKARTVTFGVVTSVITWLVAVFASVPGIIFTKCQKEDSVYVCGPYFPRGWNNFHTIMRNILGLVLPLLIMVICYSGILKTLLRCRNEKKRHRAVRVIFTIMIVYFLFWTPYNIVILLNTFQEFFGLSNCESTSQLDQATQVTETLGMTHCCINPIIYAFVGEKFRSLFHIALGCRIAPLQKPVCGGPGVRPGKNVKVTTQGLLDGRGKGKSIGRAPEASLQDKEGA

SMILES	CCR2 % ANTAG [%]	IC50 [nM]
Cn1sc(=O)c2cc(S(=O)(=O)Nc3cccc(NS(=O)(=O)c4cccs4)c3)ccc21 [1-methyl-3-oxo-N-{3-[(2-thienylsulfonyl)amino]phenyl}-1,3-dihydro-2,1-benzisothiazole-5-sulfonamide]	23	2870
COc1ccc(S(=O)(=O)Nc2ccc(Cl)cc2NS(=O)(=O)c2ccc3c(c2)c(=O)sn3C)cc1OC [N-(5-chloro-2-{[(3,4-dimethoxyphenyl)sulfonyl]amino}phenyl)-1-methyl-3-oxo-1,3-dihydro-2,1-benzisothiazole-5-sulfonamide]	93	1020
Cn1sc(=O)c2cc(S(=O)(=O)Nc3ccccc3NS(=O)(=O)c3ccccc3)ccc21 [1-methyl-3-oxo-N-{2-[(phenylsulfonyl)amino]phenyl}-1,3-dihydro-2,1-benzisothiazole-5-sulfonamide]	97	887
Cc1ccc(NS(=O)(=O)c2ccc3c(c2)c(=O)sn3C)c(NS(=O)(=O)c2cccs2)c1 [1-methyl-N-{4-methyl-2-[(2-thienylsulfonyl)amino]phenyl}-3-oxo-1,3-dihydro-2,1-benzisothiazole-5-sulfonamide]	99	563
Cn1sc(=O)c2cc(S(=O)(=O)Nc3ccccc3NS(=O)(=O)c3cccc(F)c3)ccc21 [N-(2-{[(3-fluorophenyl)sulfonyl]amino}phenyl)-1-methyl-3-oxo-1,3-dihydro-2,1-benzisothiazole-5-sulfonamide]	100	2420
Cn1sc(=O)c2cc(S(=O)(=O)Nc3ccccc3NS(=O)(=O)c3cccc(C(F)(F)F)c3)ccc21 [1-methyl-3-oxo-N-[2-({[3-(trifluoromethyl)phenyl]sulfonyl}amino)phenyl]-1,3-dihydro-2,1-benzisothiazole-5-sulfonamide]	94	2210
Cn1sc(=O)c2cc(S(=O)(=O)N[C@@H]3CCCC[C@@H]3NS(=O)(=O)c3cccs3)ccc21 (relative stereo) [rel-1-methyl-3-oxo-N-{(1R,2S)-2-[(2-thienylsulfonyl)amino]cyclohexyl}-1,3-dihydro-2,1-benzisothiazole-5-sulfonamide]	65	2180
COc1cccc(NS(=O)(=O)c2ccc3c(c2)c(=O)sn3C)c1NS(=O)(=O)c1cccs1 [N-{3-methoxy-2-[(2-thienylsulfonyl)amino]phenyl}-1-methyl-3-oxo-1,3-dihydro-2,1-benzisothiazole-5-sulfonamide]	52	
Cn1sc(=O)c2cc(S(=O)(=O)Nc3cccc4c3Oc3ccccc3O4)ccc21 [N-dibenzo[b,e][1,4]dioxin-1-yl-1-methyl-3-oxo-1,3-dihydro-2,1-benzisothiazole-5-sulfonamide]	67	1460
Cn1sc(=O)c2cc(S(=O)(=O)Nc3ccccc3NS(=O)(=O)c3cc(C(F)(F)F)cc(C(F)(F)F)c3)ccc21 [N-[2-({[3,5-bis(trifluoromethyl)phenyl]sulfonyl}amino)phenyl]-1-methyl-3-oxo-1,3-dihydro-2,1-benzisothiazole-5-sulfonamide]	94	2070
CC(C)Oc1ccc(S(=O)(=O)Nc2ccc(Cl)cc2NS(=O)(=O)c2ccc3c(c2)c(=O)sn3C)cc1 [N-(5-chloro-2-{[(4-isopropoxyphenyl)sulfonyl]amino}phenyl)-1-methyl-3-oxo-1,3-dihydro-2,1-benzisothiazole-5-sulfonamide]	72	
Cn1sc(=O)c2cc(S(=O)(=O)NC3CCCN(S(=O)(=O)c4cccs4)C3)ccc21 (stereo not shown) [1-methyl-3-oxo-N-[1-(2-thienylsulfonyl)piperidin-3-yl]-1,3-dihydro-2,1-benzisothiazole-5-sulfonamide]	39	
Cn1sc(=O)c2cc(S(=O)(=O)Nc3cc(Cl)cnc3C(=O)N3CCC(=O)CC3)ccc21 [N-{5-chloro-2-[(4-oxopiperidin-1-yl)carbonyl]pyridin-3-yl}-1-methyl-3-oxo-1,3-dihydro-2,1-benzisothiazole-5-sulfonamide]	58	

Source: US8524745B2 (Allergan, Inc., priority 2011, dated 2013)
